Source: the supplement of paper PMC11061612

How the values were obtained:
Assay in all cases: combination Emax (second highest fraction inhibited in the dose matrix, 72 h); higher = more inhibition; extreme values may be limits of the assay
[1] = test system: IM-95 (Gastric Carcinoma)
Summary of the method: (§1)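 Cell lines in DMEM/F12 or RPMI with 10% FBS were plated in 1536-well plates, held 24 hours at 37°C, 5% CO2, then given two-drug dose matrices for 72 hours (DMSO typically 0.2%). Viability was read by CellTiter-Glo 2.0 luminescence and scaled as inhibition from 0 (vehicle wells) to 1 (blank wells). Combination Emax is the second-highest inhibition in the matrix; Bliss excess is observed combination effect minus expected EA + EB − EA·EB, EA and EB being single-agent effects.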

[2] = test system: MN-60 (B-Lymphoblastic Leukemia)
Summary of the method: as §1

[3] = test system: KU812 (Chronic Myelogenous Leukemia)
Summary of the method: as §1

[4] = test system: NCI-H661 (Non-Small Cell Lung Carcinoma)
Summary of the method: as §1

[5] = test system: KMS-12-BM (Plasma Cell Myeloma)
Summary of the method: as §1

[6] = test system: NCI-H2731 (Mesothelioma)
Summary of the method: as §1

[7] = test system: KP-3 (Pancreatic Carcinoma)
Summary of the method: as §1

[8] = test system: SJSA-1 (Osteosarcoma)
Summary of the method: as §1

[9] = test system: ESO51 (Esophageal Adenocarcinoma)
Summary of the method: as §1

[10] = test system: SK-GT-2 (Gastric Carcinoma)
Summary of the method: as §1

[11] = test system: KYSE-270 (Esophageal Squamous Cell Carcinoma)
Summary of the method: as §1

[12] = test system: G-361 (Melanoma)
Summary of the method: as §1

[13] = test system: NCI-H929 (Plasma Cell Myeloma)
Summary of the method: as §1

[14] = test system: MOLM-13 (Acute Myeloid Leukemia)
Summary of the method: as §1

[15] = test system: RPMI-8226 (Plasma Cell Myeloma)
Summary of the method: as §1

[16] = test system: MOG-G-CCM (Low Grade Glioma)
Summary of the method: as §1

[17] = test system: NCI-H3122 (Lung Adenocarcinoma)
Summary of the method: as §1

[18] = test system: SUP-B15 (B-Lymphoblastic Leukemia)
Summary of the method: as §1

[19] = test system: 8505C (Thyroid Gland Carcinoma)
Summary of the method: as §1

[20] = test system: COR-L279 (Small Cell Lung Carcinoma)
Summary of the method: as §1

| SMILES | combination Emax [1] | combination Emax [2] | combination Emax [3] | combination Emax [4] | combination Emax [5] | combination Emax [6] | combination Emax [7] | combination Emax [8] | combination Emax [9] | combination Emax [10] | combination Emax [11] | combination Emax [12] | combination Emax [13] | combination Emax [14] | combination Emax [15] | combination Emax [16] | combination Emax [17] | combination Emax [18] | combination Emax [19] | combination Emax [20] |
| --- | --- | --- | --- | --- | --- | --- | --- | --- | --- | --- | --- | --- | --- | --- | --- | --- | --- | --- | --- | --- |
| NC1(C(=O)N[C@@H](CCO)c2ccc(Cl)cc2)CCN(c2ncnc3[nH]ccc23)CC1 [Capivasertib] + CC(=O)c1c(C)c2cnc(Nc3ccc(N4CCNCC4)cn3)nc2n(C2CCCC2)c1=O [Palbociclib] (first compound max 10 µM, 7x7, partner max 10 µM) | 0.423 | 0.583 | 0.552 | 0.368 | 0.734 | 0.361 | 0.25 | 0.51 | 0.356 | 0.248 | 0.27 | 0.443 | 1 | 0.98 | 0.483 | 0.501 | 0.701 | 0.94 | 0.187 | 0.688 |
| CN(CCO)CC[C@H](CSc1ccccc1)Nc1ccc(S(=O)(=O)NC(=O)c2ccc(N3CCC([C@@H](O)c4ccccc4-c4ccc(Cl)cc4)CC3)cc2)cc1S(=O)(=O)C(F)(F)F [AZD4320] + Cn1cnc2c(F)c(Nc3ccc(Br)cc3Cl)c(C(=O)NOCCO)cc21 [Selumetinib] (first compound max 1 µM, 7x7, partner max 3 µM) | 0.876 | 0.321 | 0.966 | 0.264 | 1 | 0.22 | 0.198 | 0.429 | 0.476 | 0.241 | 0.389 | 0.849 | 0.631 | 1 | 0.965 | 0.576 | 0.538 | 1 | 0.475 | 0.997 |
| CC(=O)Nc1cccc(-n2c(=O)n(C3CC3)c(=O)c3c(Nc4ccc(I)cc4F)n(C)c(=O)c(C)c32)c1 [Trametinib] + Cc1nc(-c2cn3c(n2)-c2ccc(-c4cnn(C(C)(C)C(N)=O)c4)cc2OCC3)n(C(C)C)n1 [Taselisib] (first compound max 1 µM, 7x7, partner max 10 µM) | 0.584 | 0.42 | 0.921 | 0.457 | 0.636 | 0.498 | 0.446 | 0.699 | 0.987 | 0.723 | 0.8 | 0.996 | 1 | 1 | 0.755 | 0.548 | 0.99 | 1 | 0.496 | 0.661 |
| C[C@@H](c1ccc2nccn2c1)n1nnc2ncc(-c3cnn(C)c3)nc21 [Savolitinib] + CC1(C)CCC(CN2CCN(c3ccc(C(=O)NS(=O)(=O)c4ccc(NCC5CCOCC5)c([N+](=O)[O-])c4)c(Oc4cnc5[nH]ccc5c4)c3)CC2)=C(c2ccc(Cl)cc2)C1 [Venetoclax] (first compound max 1 µM, 7x7, partner max 1 µM) | 0.333 | 0.125 | 0.245 | 0.115 | 0.97 | 0.144 | 0.131 | 0.109 | 0.877 | 0.139 | 0.15 | 0.106 | 0.261 | 0.923 | 0.106 | 0.204 | 0.153 | 1 | 0.12 | 0.199 |
| Cc1c2c(nn1C)CSCc1cc(n(C)n1)CSc1cc(c3ccccc3c1)OCCCc1c(C(=O)O)n(C)c3c-2c(Cl)ccc13 [AZD5991] + CCN(CCO)CCCOc1ccc2c(Nc3cc(CC(=O)Nc4cccc(F)c4)[nH]n3)ncnc2c1 [AZD2811] (first compound max 1 µM, 7x7, partner max 1 µM) | 0.875 | 0.206 | 0.851 | 0.686 | 1 | 0.273 | 0.186 | 0.292 | 0.195 | 0.204 | 0.926 | 0.964 | 1 | 1 | 0.965 | 0.41 | 0.918 | 1 | 0.866 | 0.787 |
| C=CCn1c(=O)c2cnc(Nc3ccc(N4CCN(C)CC4)cc3)nc2n1-c1cccc(C(C)(C)O)n1 [AZD1775] + C1CN(CCC1(C(=O)N[C@@H](CCO)C2=CC=C(C=C2)Cl)N)C3=NC=NC4=C3C=CN4 [Capivasertib] (first compound max 3 µM, partner max 3 µM) | 0.655 | 0.555 | 0.912 | 0.648 | 0.984 | 0.416 | 0.28 | 0.634 | 0.814 | 0.83 | 0.85 | 0.724 | 0.981 | 1 | 0.822 | 0.748 | 0.622 | 0.954 | 0.741 | 0.818 |
| CN(CCO)CC[C@H](CSc1ccccc1)Nc1ccc(S(=O)(=O)NC(=O)c2ccc(N3CCC([C@@H](O)c4ccccc4-c4ccc(Cl)cc4)CC3)cc2)cc1S(=O)(=O)C(F)(F)F [AZD4320] + C[C@@H]1COCCN1C2=NC(=NC(=C2)C3(CC3)[S@](=N)(=O)C)C4=C5C=CNC5=NC=C4 [AZD6738] (first compound max 1 µM, 7x7, partner max 10 µM) | 0.778 | 0.51 | 0.942 | 0.674 | 1 | 0.328 | 0.486 | 0.557 | 0.861 | 0.633 | 0.78 | 0.629 | 0.739 | 1 | 1 | 0.783 | 0.675 | 1 | 0.59 | 1 |
| COc1nnc2ccc(N3CCC(c4ccc(OCCN5CCN(C)C(=O)[C@H]5C)cc4)CC3)nn12 [AZD5153] + C=CCn1c(=O)c2cnc(Nc3ccc(N4CCN(C)CC4)cc3)nc2n1-c1cccc(C(C)(C)O)n1 [AZD1775] (first compound max 1 µM, partner max 1 µM) | 0.5 | 0.748 | 0.931 | 0.731 | 1 | 0.535 | 0.4 | 0.589 | 0.723 | 0.755 | 0.656 | 0.734 | 0.908 | 1 | 0.845 | 0.615 | 0.707 | 0.962 | 0.574 | 0.899 |
| NC1(C(=O)N[C@@H](CCO)c2ccc(Cl)cc2)CCN(c2ncnc3[nH]ccc23)CC1 [Capivasertib] + C[C@@H]1COCCN1C2=NC(=NC(=C2)C3(CC3)[S@](=N)(=O)C)C4=C5C=CNC5=NC=C4 [AZD6738] (first compound max 10 µM, 7x7, partner max 10 µM) | 0.456 | 0.715 | 0.851 | 0.569 | 0.823 | 0.514 | 0.318 | 0.713 | 0.817 | 0.601 | 0.651 | 0.614 | 1 | 0.982 | 0.875 | 0.787 | 0.727 | 0.986 | 0.475 | 0.853 |
| COc1cccc(OCCCN)c1-c1cc(Nc2cnc(C#N)cn2)n[nH]1 [Prexasertib] + C=CCn1c(=O)c2cnc(Nc3ccc(N4CCN(C)CC4)cc3)nc2n1-c1cccc(C(C)(C)O)n1 [AZD1775] (first compound max 1 µM, partner max 1 µM) | 0.691 | 0.653 | 0.819 | 0.788 | 1 | 0.544 | 0.472 | 0.686 | 0.757 | 0.899 | 1 | 0.765 | 0.847 | 1 | 1 | 0.821 | 0.896 | 0.978 | 0.727 | 0.881 |
| COc1cccc2c1C(=O)c1c(O)c3c(c(O)c1C2=O)C[C@@](O)(C(=O)CO)C[C@@H]3O[C@H]1C[C@H](N)[C@H](O)[C@H](C)O1 [Doxorubicin] + Cc1cc2ncnn2cc1Nc1ncc2c(n1)n(C1CCOCC1)c(=O)n2C [AZD7648] (first compound max 1 µM, 7x7, partner max 10 µM) | 0.7 | 0.833 | 0.822 | 0.753 | 0.84 | 0.715 | 0.152 | 0.864 | 0.611 | 0.406 | 0.944 | 0.926 | 0.994 | 1 | 0.976 | 0.663 | 0.921 | 0.987 | 0.846 | 1 |
| COc1cccc(OCCCN)c1-c1cc(Nc2cnc(C#N)cn2)n[nH]1 [Prexasertib] + C[C@@H]1COCCN1C2=NC(=NC(=C2)C3(CC3)[S@](=N)(=O)C)C4=C5C=CNC5=NC=C4 [AZD6738] (first compound max 1 µM, 7x7, partner max 10 µM) | 0.267 | 0.562 | 0.756 | 0.744 | 1 | 0.395 | 0.456 | 0.575 | 0.779 | 0.81 | 0.999 | 0.655 | 0.741 | 1 | 1 | 0.644 | 0.794 | 0.962 | 0.551 | 0.835 |
